Assay results published in ChEMBL document CHEMBL1122513, “Synthesis and antiviral activity of carbocyclic analogues of 2'-deoxyribofuranosides of 2-amino-6-substituted-purines and of 2-amino-6-substituted-8-azapurines” (J Med Chem, 1984).
Converted amounts (≈) assume the structure as drawn.

Test system: Vaccinia virus
Experiment: Concentration required to inhibit vaccinia virus induced cytopathogenic affects by 50%
Type: functional, Orthopoxvirus vaccinia
[1] = Orthopoxvirus vaccinia, read-out: MIC50

Row | SMILES | MIC50 | MIC50 [1]
1 | Nc1ncnc2c1ncn2[C@@H]1C[C@H](CO)[C@@H](O)[C@@H]1O | 9 µg/mL (≈ 33.9 µM) | 9 µg/mL (≈ 33.9 µM)
2 | OCC1CC(n2nnc3c(O)ncnc32)C(O)C1O (stereo not given) |  | 467 µg/mL (≈ 1750 µM)
3 | OCC1CC(n2cnc3c(O)ncnc32)C(O)C1O (stereo not given) |  | 191 µg/mL (≈ 717 µM)
4 | Nc1ccn([C@@H]2C[C@H](CO)[C@@H](O)[C@H]2O)c(=O)n1 (stereo in doubt; form 2) |  | 57 µg/mL (≈ 236 µM)
